# From patent EP2970215B1, “PYRROLIDINE DERIVATIVES, PHARMACEUTICAL COMPOSITIONS CONTAINING THEM, AND THEIR USE IN THERAPY” (AbbVie Deutschland GmbH & Co. KG, priority 2013, dated 2014)
# pKi: −log10 of the molar value.
# Biological target: T1, human GlyT1c transporter (Homo sapiens, UniProt P48067)
# T1 construct: expressed in transfected cells; host or cells: CHO cells (recombinant; line hGlyT1c_5_CHO is named for the uptake assay)
# T1 sequence (P48067 1-706): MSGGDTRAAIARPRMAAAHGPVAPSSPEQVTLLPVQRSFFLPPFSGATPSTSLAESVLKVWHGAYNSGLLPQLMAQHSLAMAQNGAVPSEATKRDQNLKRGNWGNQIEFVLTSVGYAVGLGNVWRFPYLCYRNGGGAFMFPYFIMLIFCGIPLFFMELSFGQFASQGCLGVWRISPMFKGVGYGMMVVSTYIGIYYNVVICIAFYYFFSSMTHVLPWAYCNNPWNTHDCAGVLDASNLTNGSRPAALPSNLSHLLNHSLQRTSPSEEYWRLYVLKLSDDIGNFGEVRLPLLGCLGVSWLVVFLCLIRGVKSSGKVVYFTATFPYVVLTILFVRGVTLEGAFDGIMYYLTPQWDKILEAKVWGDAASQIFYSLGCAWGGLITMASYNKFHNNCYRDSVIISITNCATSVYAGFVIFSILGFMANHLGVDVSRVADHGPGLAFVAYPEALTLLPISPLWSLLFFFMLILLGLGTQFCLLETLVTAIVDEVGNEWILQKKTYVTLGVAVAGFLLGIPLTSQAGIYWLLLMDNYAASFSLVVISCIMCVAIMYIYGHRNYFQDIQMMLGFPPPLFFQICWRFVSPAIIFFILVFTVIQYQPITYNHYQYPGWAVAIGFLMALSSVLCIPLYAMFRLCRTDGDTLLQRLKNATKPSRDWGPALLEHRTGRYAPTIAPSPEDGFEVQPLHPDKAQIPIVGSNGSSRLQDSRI
# Test: Radioligand binding assay using recombinant CHO cell membranes expressing human GlyT1
# Conditions: radioligand binding to human GlyT1c transporter-expressing membranes
# Text: 2. Radioligand binding assays using recombinant CHO cell membranes expressing human GlyT1: […]
row,SMILES,pKi
1,"Cn1cnc(S(=O)(=O)N2C[C@H](NCC3CCOC3)[C@@H](c3ccccc3)C2)c1 (stereo partly drawn) [Example 447, (3R,4S)-1-[(1-methyl-1H-imidazol-4-yl)sulfonyl]-4-phenyl-N-(tetrahydrofuran-3-ylmethyl)pyrrolidin-3-amine]",≥ 5.00
2,"Cn1cnc(S(=O)(=O)N2C[C@H](NCc3nc4ccccc4s3)[C@@H](c3ccccc3)C2)c1 [Example 453, (3R,4S)-N-(1,3-benzothiazol-2-ylmethyl)-1-[(1-methyl-1H-imidazol-4-yl)sulfonyl]-4-phenylpyrrolidin-3-amine]",≥ 6.00
3,"Cc1csc(CN[C@H]2CN(S(=O)(=O)c3cn(C)cn3)C[C@@H]2c2ccccc2)n1 [Example 454, (3R,4S)-1-[(1-methyl-1H-imidazol-4-yl)sulfonyl]-N-[(4-methyl-1,3-thiazol-2-yl)methyl]-4-phenylpyrrolidin-3-amine]",≥ 5.00
4,"Cn1cnc(S(=O)(=O)N2C[C@H](NCc3cncs3)[C@@H](c3ccccc3)C2)c1 [Example 457, (3R,4S)-1-[(1-methyl-1H-imidazol-4-yl)sulfonyl]-4-phenyl-N-(1,3-thiazol-5-ylmethyl)pyrrolidin-3-amine]",≥ 5.00
5,"CC1=C(CCN[C@H]2CN(S(=O)(=O)c3cn(C)cn3)C[C@@H]2c2ccccc2)C(C)(C)CCC1 [Example 458, (3R,4S)-1-[(1-methyl-1H-imidazol-4-yl)sulfonyl]-4-phenyl-N-[2-(2,6,6-trimethylcyclohex-1-en-1-yl)ethyl]pyrrolidin-3-amine]",≥ 5.00
6,"Cn1cnc(S(=O)(=O)N2C[C@H](NCC3(C)CCCCC3)[C@@H](c3ccccc3)C2)c1 [Example 467, (3R,4S)-N-[(1-methylcyclohexyl)methyl]-1-[(1-methyl-1H-imidazol-4-yl)sulfonyl]-4-phenylpyrrolidin-3-amine]",≥ 6.00
7,"Cn1cnc(S(=O)(=O)N2C[C@H](NCCOc3ccc(C(C)(C)C)cc3)[C@@H](c3ccccc3)C2)c1 [Example 469, (3R,4S)-N-[2-(4-tert-butylphenoxy)ethyl]-1-[(1-methyl-1H-imidazol-4-yl)sulfonyl]-4-phenylpyrrolidin-3-amine]",≥ 6.00
8,"CCC(CN[C@H]1CN(S(=O)(=O)c2cn(C)cn2)C[C@@H]1c1ccccc1)C(C)C (stereo partly drawn) [Example 470, (3R,4S)-N-(2-ethyl-3-methylbutyl)-1-[(1-methyl-1H-imidazol-4-yl)sulfonyl]-4-phenylpyrrolidin-3-amine]",≥ 5.00
9,"Cn1cnc(S(=O)(=O)N2C[C@H](NCc3nc(Br)cs3)[C@@H](c3ccccc3)C2)c1 [Example 472, (3R,4S)-N-[(4-bromo-1,3-thiazol-2-yl)methyl]-1-[(1-methyl-1H-imidazol-4-yl)sulfonyl]-4-phenylpyrrolidin-3-amine]",≥ 6.00
10,"Cc1nc(C)c(S(=O)(=O)N2CC(Nc3ccc(F)c(F)c3)C(c3ccccc3)C2)s1 (stereo not shown) [Example 474, N-(3,4-difluorophenyl)-1-[(2,4-dimethyl-1,3-thiazol-5-yl)sulfonyl]-4-phenylpyrrolidin-3-amine]",≥ 5.00
11,"Cc1nn(C(C)C)cc1S(=O)(=O)N1CC(Nc2ccc(F)c(F)c2)C(c2ccccc2)C1 (stereo not shown) [Example 475, N-(3,4-difluorophenyl)-1-{[3-methyl-1-(propan-2-yl)-1H-pyrazol-4-yl]sulfonyl}-4-phenylpyrrolidin-3-amine]",≥ 5.00
12,"O=S(=O)(c1cccnc1)N1CC(Nc2ccc(F)c(F)c2)C(c2ccccc2)C1 (stereo not shown) [Example 477, N-(3,4-difluorophenyl)-4-phenyl-1-(pyridin-3-ylsulfonyl)pyrrolidin-3-amine]",≥ 5.00
13,"O=c1[nH]c(=O)c2cc(S(=O)(=O)N3CC(Nc4ccc(F)c(F)c4)C(c4ccccc4)C3)ccc2[nH]1 (stereo not shown) [Example 480, 6-({3-[(3,4-difluorophenyl)amino]-4-phenylpyrrolidin-1-yl}sulfonyl)quinazoline-2,4(1H,3H)-dione]",< 5.00
14,"Cc1cc2c(cc1S(=O)(=O)N1CC(Nc3ccc(F)c(F)c3)C(c3ccccc3)C1)OCC(=O)N2 (stereo not shown) [Example 481, 7-({3-[(3,4-difluorophenyl)amino]-4-phenylpyrrolidin-1-yl}sulfonyl)-6-methyl-2H-1,4-benzoxazin-3(4H)-one]",≥ 5.00
15,"Cc1c(S(=O)(=O)N2CC(Nc3ccc(F)c(F)c3)C(c3ccccc3)C2)cnn1C (stereo not shown) [Example 483, N-(3,4-difluorophenyl)-1-[(1,5-dimethyl-1H-pyrazol-4-yl)sulfonyl]-4-phenylpyrrolidin-3-amine]",≥ 5.00
16,"Cc1csc(S(=O)(=O)N2CC(Nc3ccc(F)c(F)c3)C(c3ccccc3)C2)c1 (stereo not shown) [Example 484, N-(3,4-difluorophenyl)-1-[(4-methylthiophen-2-yl)sulfonyl]-4-phenylpyrrolidin-3-amine]",≥ 5.00
17,"O=S(=O)(N1CCCC1)N1CC(Nc2ccc(F)c(F)c2)C(c2ccccc2)C1 (stereo not shown) [Example 485, N-(3,4-difluorophenyl)-4-phenyl-1-(pyrrolidin-1-ylsulfonyl)pyrrolidin-3-amine]",≥ 5.00
18,"Cc1nn(C)c(Cl)c1S(=O)(=O)N1CC(Nc2ccc(F)c(F)c2)C(c2ccccc2)C1 (stereo not shown) [Example 486, 1-[(5-chloro-1,3-dimethyl-1H-pyrazol-4-yl)sulfonyl]-N-(3,4-difluorophenyl)-4-phenylpyrrolidin-3-amine]",≥ 5.00
19,"Cc1oncc1S(=O)(=O)N1CC(Nc2ccc(F)c(F)c2)C(c2ccccc2)C1 (stereo not shown) [Example 487, N-(3,4-difluorophenyl)-1-[(5-methyl-1,2-oxazol-4-yl)sulfonyl]-4-phenylpyrrolidin-3-amine]",≥ 5.00
20,"Cc1ncc(S(=O)(=O)N2CC(Nc3ccc(F)c(F)c3)C(c3ccccc3)C2)n1C (stereo not shown) [Example 490, N-(3,4-difluorophenyl)-1-[(1,2-dimethyl-1H-imidazol-5-yl)sulfonyl]-4-phenylpyrrolidin-3-amine]",≥ 5.00

# Second part, the compound after the results:
row,pKi,SMILES
1,≥ 6.00,"CCC(CC)CN[C@H]1CN(S(=O)(=O)c2cn(C)cn2)C[C@@H]1c1ccccc1 [Example 449, (3R,4S)-N-(2-ethylbutyl)-1-[(1-methyl-1H-imidazol-4-yl)sulfonyl]-4-phenylpyrrolidin-3-amine]"
2,≥ 6.00,"CCC(C)(C)CN[C@H]1CN(S(=O)(=O)c2cn(C)cn2)C[C@@H]1c1ccccc1 [Example 450, (3R,4S)-N-(2,2-dimethylbutyl)-1-[(1-methyl-1H-imidazol-4-yl)sulfonyl]-4-phenylpyrrolidin-3-amine]"
3,≥ 7.00,"Cc1cc(CN[C@H]2CN(S(=O)(=O)c3cn(C)cn3)C[C@@H]2c2ccccc2)sc1C [Example 455, (3R,4S)-N-[(4,5-dimethylthiophen-2-yl)methyl]-1-[(1-methyl-1H-imidazol-4-yl)sulfonyl]-4-phenylpyrrolidin-3-amine]"
4,≥ 6.00,"Cn1cnc(S(=O)(=O)N2C[C@H](NCc3nc4c(s3)CCCC4)[C@@H](c3ccccc3)C2)c1 [Example 456, (3R,4S)-1-[(1-methyl-1H-imidazol-4-yl)sulfonyl]-4-phenyl-N-(4,5,6,7-tetrahydro-1,3-benzothiazol-2-ylmethyl)pyrrolidin-3-amine]"
5,≥ 6.00,"Cc1ccc(CCN[C@H]2CN(S(=O)(=O)c3cn(C)cn3)C[C@@H]2c2ccccc2)cc1 [Example 461, (3R,4S)-1-[(1-methyl-1H-imidazol-4-yl)sulfonyl]-N-[2-(4-methylphenyl)ethyl]-4-phenylpyrrolidin-3-amine]"
6,≥ 6.00,"CC(C)CCN[C@H]1CN(S(=O)(=O)c2cn(C)cn2)C[C@@H]1c1ccccc1 [Example 463, (3R,4S)-N-(3-methylbutyl)-1-[(1-methyl-1H-imidazol-4-yl)sulfonyl]-4-phenylpyrrolidin-3-amine]"
7,≥ 6.00,"CC(CCN[C@H]1CN(S(=O)(=O)c2cn(C)cn2)C[C@@H]1c1ccccc1)CC(C)(C)C (stereo partly drawn) [Example 464, (3R,4S)-1-[(1-methyl-1H-imidazol-4-yl)sulfonyl]-4-phenyl-N-(3,5,5-trimethylhexyl)pyrrolidin-3-amine]"
8,≥ 6.00,"CC(CN[C@H]1CN(S(=O)(=O)c2cn(C)cn2)C[C@@H]1c1ccccc1)c1ccccc1 (stereo partly drawn) [Example 465, (3R,4S)-1-[(1-methyl-1H-imidazol-4-yl)sulfonyl]-4-phenyl-N-(2-phenylpropyl)pyrrolidin-3-amine]"
9,≥ 7.00,"Cn1cnc(S(=O)(=O)N2C[C@H](NCCc3cccc(Cl)c3)[C@@H](c3ccccc3)C2)c1 [Example 468, (3R,4S)-N-[2-(3-chlorophenyl)ethyl]-1-[(1-methyl-1H-imidazol-4-yl)sulfonyl]-4-phenylpyrrolidin-3-amine]"
10,≥ 7.00,"Cn1cnc(S(=O)(=O)N2C[C@H](NCCCc3cccc(Cl)c3)[C@@H](c3ccccc3)C2)c1 [Example 471, (3R,4S)-N-[3-(3-chlorophenyl)propyl]-1-[(1-methyl-1H-imidazol-4-yl)sulfonyl]-4-phenylpyrrolidin-3-amine]"
11,≥ 7.00,"Cc1nc(-c2ccccc2)sc1CN[C@H]1CN(S(=O)(=O)c2cn(C)cn2)C[C@@H]1c1ccccc1 [Example 473, (3R,4S)-1-[(1-methyl-1H-imidazol-4-yl)sulfonyl]-N-[(4-methyl-2-phenyl-1,3-thiazol-5-yl)methyl]-4-phenylpyrrolidin-3-amine]"
